{"source": "paper PMC11791039", "about": "“A split intein and split luciferase-coupled system for detecting protein-protein interactions” (Molecular Systems Biology, 2024)", "assay_type_in_all_cases": "cell-based", "key": {"EGFR(L858R)/SHC1 [1]": {"target": "T1, EGFR(L858R)/SHC1 (Homo sapiens, UniProt P00533, L858R)", "T1 construct": "β10-IN (tNLuc β10 peptide + GP41-1 split intein N fragment) (C); V5; expressed in transfected cells", "test": "Western blot of EGFR(L858R)-SHC1 splicing", "conditions": "inhibitor 100 nM, 16 h"}, "control": {"target": "T2, control (Homo sapiens, UniProt P01116, G12C)", "T2 construct": "IC-β9 (GP41-1 split intein C fragment + tNLuc β9 peptide) (N); FLAG; expressed in transfected cells", "T2 sequence (P01116 1-185 isoform P01116-2 G12C limits assumed)": "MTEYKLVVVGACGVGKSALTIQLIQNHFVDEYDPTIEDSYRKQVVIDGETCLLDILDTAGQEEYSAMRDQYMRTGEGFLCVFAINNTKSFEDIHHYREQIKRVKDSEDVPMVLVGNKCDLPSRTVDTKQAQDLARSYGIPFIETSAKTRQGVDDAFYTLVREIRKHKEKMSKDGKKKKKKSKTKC", "test": "SIMPL2 assay, control of Fig. 3B-D", "conditions": "replicates 1-4"}, "EGFR(L858R)/SHC1 [2]": {"target": "T1, EGFR(L858R)/SHC1", "test": "SIMPL2 assay EGFR(L858R)/SHC1", "conditions": "replicates 1-4"}, "EGFR(WT)/SHC1 [3]": {"target": "T3, EGFR(WT)/SHC1 (Homo sapiens, UniProt P00533)", "T3 construct": "β10-IN (tNLuc β10 peptide + GP41-1 split intein N fragment) (C); V5; expressed in transfected cells", "test": "SIMPL2 assay EGFR(WT)/SHC1;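 further: 0% is no doxycycline or compound and 100% is doxycycline without compound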", "conditions": "replicates 1-4"}, "EGFR(WT)/SHC1 [4]": {"target": "T3, EGFR(WT)/SHC1", "test": "Western blot of EGFR(WT)-SHC1 splicing", "conditions": "inhibitor 100 nM, 16 h"}}, "note": "Several values for one entry are separate records, joined by “and”; a condition that tells them apart may be missing. Equal values may be shown once.", "data": [{"smiles": "COc1cc2ncnc(Nc3cccc(Cl)c3)c2cc1OC", "note": "[AG1478]", "values": [{"measurement": "splicing between EGFR(L858R) and SHC1 (western blot)", "setting": "EGFR(L858R)/SHC1 [1]", "value": "reduced or abolished"}, {"measurement": "SIMPL2 signal, control (Fig. 3B)", "setting": "control; AG1478 6.4e-6 uM", "value": "78.4402 and 101.308 and 94.2905 and 84.6604"}, {"measurement": "SIMPL2 signal, control (Fig. 3B)", "setting": "control; AG1478 3.2e-5 uM", "value": "100.905 and 96.8875 and 97.961 and 100.282"}, {"measurement": "SIMPL2 signal, control (Fig. 3B)", "setting": "control; AG1478 0.00016 uM", "value": "91.8672 and 101.363 and 100.305 and 106.707"}, {"measurement": "SIMPL2 signal, control (Fig. 3B)", "setting": "control; AG1478 0.0008 uM", "value": "94.4089 and 99.0424 and 101.553 and 109.943"}, {"measurement": "SIMPL2 signal, control (Fig. 3B)", "setting": "control; AG1478 0.004 uM", "value": "91.5435 and 102.468 and 100.85 and 97.0453"}, {"measurement": "SIMPL2 signal, control (Fig. 3B)", "setting": "control; AG1478 0.02 uM", "value": "77.4062 and 87.6599 and 89.9806 (2×)"}, {"measurement": "SIMPL2 signal, control (Fig. 3B)", "setting": "control; AG1478 0.1 uM", "value": "82.8606 and 100.092 and 105.918 and 87.8651"}, {"measurement": "SIMPL2 signal, control (Fig. 3B)", "setting": "control; AG1478 0.5 uM", "value": "102.547 and 94.4247 and 100.724 and 111.159"}, {"measurement": "SIMPL2 signal, L858R (Fig. 3B)", "setting": "EGFR(L858R)/SHC1 [2]; AG1478 6.4e-6 uM", "value": "91.6588 and 97.6255 and 114.285 and 112.912"}, {"measurement": "SIMPL2 signal, L858R (Fig. 3B)", "setting": "EGFR(L858R)/SHC1 [2]; AG1478 3.2e-5 uM", "value": "89.0187 and 76.3196 and 106.708 and 96.4903"}, {"measurement": "SIMPL2 signal, L858R (Fig. 3B)", "setting": "EGFR(L858R)/SHC1 [2]; AG1478 0.00016 uM", "value": "80.0422 and 76.3461 and 104.596 and 91.474"}, {"measurement": "SIMPL2 signal, L858R (Fig. 3B)", "setting": "EGFR(L858R)/SHC1 [2]; AG1478 0.0008 uM", "value": "78.2733 and 74.7356 and 79.963 and 75.2372"}, {"measurement": "SIMPL2 signal, L858R (Fig. 3B)", "setting": "EGFR(L858R)/SHC1 [2]; AG1478 0.004 uM", "value": "44.1628 and 44.3476 and 45.9581 and 41.1531"}, {"measurement": "SIMPL2 signal, L858R (Fig. 3B)", "setting": "EGFR(L858R)/SHC1 [2]; AG1478 0.02 uM", "value": "13.9069 and 29.2725 and 26.9756 and 25.1011"}, {"measurement": "SIMPL2 signal, L858R (Fig. 3B)", "setting": "EGFR(L858R)/SHC1 [2]; AG1478 0.1 uM", "value": "16.4414 and 17.2863 and 10.8707 and 9.471"}, {"measurement": "SIMPL2 signal, L858R (Fig. 3B)", "setting": "EGFR(L858R)/SHC1 [2]; AG1478 0.5 uM", "value": "3.505 and 4.482 and 4.93 and 3.98"}, {"measurement": "SIMPL2 signal, WT (Fig. 3B)", "setting": "EGFR(WT)/SHC1 [3]; AG1478 6.4e-6 uM", "value": "102.427 and 84.7059 and 104.371 and 106.871"}, {"measurement": "SIMPL2 signal, WT (Fig. 3B)", "setting": "EGFR(WT)/SHC1 [3]; AG1478 3.2e-5 uM", "value": "77.5953 and 99.0938 and 89.9278 and 95.7607"}, {"measurement": "SIMPL2 signal, WT (Fig. 3B)", "setting": "EGFR(WT)/SHC1 [3]; AG1478 0.00016 uM", "value": "73.3734 and 100.927 and 94.8163 and 93.2609"}, {"measurement": "SIMPL2 signal, WT (Fig. 3B)", "setting": "EGFR(WT)/SHC1 [3]; AG1478 0.0008 uM", "value": "88.6501 and 85.7058 and 98.1494 and 104.871"}, {"measurement": "SIMPL2 signal, WT (Fig. 3B)", "setting": "EGFR(WT)/SHC1 [3]; AG1478 0.004 uM", "value": "74.54 and 81.3728 and 67.2627 and 74.6511"}, {"measurement": "SIMPL2 signal, WT (Fig. 3B)", "setting": "EGFR(WT)/SHC1 [3]; AG1478 0.02 uM", "value": "70.0958 and 71.7624 and 65.6517 and 61.8742"}, {"measurement": "SIMPL2 signal, WT (Fig. 3B)", "setting": "EGFR(WT)/SHC1 [3]; AG1478 0.1 uM", "value": "65.485 and 59.9854 and 59.7632 and 57.8189"}, {"measurement": "SIMPL2 signal, WT (Fig. 3B)", "setting": "EGFR(WT)/SHC1 [3]; AG1478 0.5 uM", "value": "29.8764 and 30.6541 and 19.6549 and 21.0437"}, {"measurement": "splicing between EGFR(WT) and SHC1 (western blot)", "setting": "EGFR(WT)/SHC1 [4]", "value": "reduced or abolished"}]}]}
